# Tests used:
# [1] = intramolecular disulfide formation by ambient air oxidation of bis-Cys peptides on SiO2 array surface after side-chain deprotection (TFA/TMS-OTf) and NH3-gas DKP detachment; fraction oxidized from MALDI relative peak intensities; conditions: the molecule shown is the open-chain precursor; 8-membered ring; none (dry film on SiO2, ambient air); other; 18.0 h; scale: fraction oxidized
# human diaphorase (NQO1) = target: T1, human diaphorase (NQO1) (Homo sapiens, UniProt P15559); assay: Alexa Fluor 555-diaphorase binding to linear and lactam constrained peptide microarrays; conditions: 10.0 nM protein applied to the array; for Diaphorase Lactam, log 10 transformed median intensity: lactam constrained library peptide; for Diaphorase Linear, log 10 transformed median intensity: linear library peptide
# T1 construct: purchased SigmaAldrich
# From the text: (§1) Diaphorase is NAD(P)H dehydrogenase (UniProtKB: P15559) encoded by the NQO1 gene. Diaphorase has utility as a model enzyme; for which peptide based synthetic affinity agents to diaphorase are required. A 3.3 million feature peptide array was used to identify potential binding partner peptides for diaphorase. Ferredoxin NADP+ Reductase (FNR) and Ferredoxin are included as counter screens for a specific application, while immunoglobulin depleted human serum (Non-Immunoglobulin Serum Components or NISC) was used as a complex mixture to control for generally sticky peptides.
# Two wafers from the same synthesis batch were obtained where one wafer was prepared with the lactam chemistry and constrained into a cyclized form. The degree of cyclization was confirmed using the biotinylation assay described in Examples 9, 17, and 19.
# (§2) Peptide arrays were prepared for protein binding by pretreating the arrays in PBST for 30 min at […]. Direct labeled diaphorase (Alexa Fluor™ 555), direct labeled FNR (Alexa Fluor™ 555) and biotinylated ferredoxin were applied to the arrays at 1.0 and 10.0 nM along with direct labeled NISC at 0.001 mg/mL for 1 hr at 37° C. Arrays were washed 3× with PBST and Streptavidin-Alexa Fluor™ 555 was applied to the biotinylated ferredoxin and streptavidin alone arrays. All other arrays received PBST and were incubated for 1 hr at 37° C. Arrays were washed with PBST and p53Ab1-Alexa Fluor™ 647 applied to all arrays to illuminate the edge fiducials for 10 min at 37° C. Following the final incubation arrays were washed in PBST and water, dried and imaged on the ImageXpress ([…]). Triplicate arrays were used for the subsequent analysis except for when rejection of an array was necessary due to the presence of artifacts. Data were analyzed using a custom R script.
# Intensities plotted are the log 10 transformed median intensity from replicate arrays. Coloring of the points represents the density of features at that intensity using a gray-scale map. Light grey represents areas of low peptide numbers while black represents the intensity having the highest number of peptides. The diagonal line is equivalence line. […] CLUSTAL sequence alignment (FIG. 27B) of the sequences indicated similarities in amino acid composition. Highlighted amino acids are conserved in over 60% of the peptides for that position or are a chemically similar amino acid (ie: F and Y).
# The sequences contain similar amino acid usage. Four peptides having the highest degree of cyclization in the quality control assay were identified and binding intensities compared to other library peptides having one or two amino acid substitutions as shown in FIG. 28. Substitutional analysis provides confidence in the array data by indicating which residues are important for binding. Dark grey boxes highlight indicate a residue conserved in more than 60% of the peptides. Light grey boxes highlight indicate chemically similar amino acids to the conserved residue. RFI is the intensity is the median replicate log 10 intensity for the 10.0 nM Diaphorase.
# [2] = system: Ferredoxin NADP+ Reductase (FNR); assay: FNR counter screen on linear and lactam constrained peptide microarrays; format: binding; conditions: 10.0 nM protein applied to the array; for FNR Lactam, log 10 transformed median intensity: lactam constrained library peptide; for FNR Linear, log 10 transformed median intensity: linear library peptide
# From the text: as §1, §2
# Streptavidin = Streptavidin (Streptomyces avidinii, UniProt P22629); assay: Streptavidin-Alexa Fluor 555 alone on linear and lactam constrained peptide microarrays; format: binding; conditions: for Streptavidin Lactam, log 10 transformed median intensity: lactam constrained library peptide; for Streptavidin Linear, log 10 transformed median intensity: linear library peptide
# Protocol: as §2
# Ferredoxin = assay: Biotinylated ferredoxin counter screen on linear and lactam constrained peptide microarrays; format: binding; conditions: 10.0 nM biotinylated protein, detected with Streptavidin-Alexa Fluor 555; for Ferredoxin Lactam, log 10 transformed median intensity: lactam constrained library peptide; for Ferredoxin Linear, log 10 transformed median intensity: linear library peptide
# From the text: as §1, §2
# [3] = system: Non-Immunoglobulin Serum Components (NISC); assay: NISC counter screen on linear and lactam constrained peptide microarrays; format: binding, human; conditions: 0.001 mg/mL NISC applied to the array; for NISC Lactam, log 10 transformed median intensity: lactam constrained library peptide; for NISC Linear, log 10 transformed median intensity: linear library peptide
# From the text: as §1, §2
# Peptides were also selected based on the difference in log 10 transformed intensities between diaphorase and NISC as the counter screen agent (LFGdiaphorase minus LFGNISC). Intensities for 10.0 nM diaphorase and 0.001 mg/mL NISC are shown in FIG. 29A where intensities plotted are the log 10 transformed median intensity from replicate arrays. Coloring of the points represents the density of features at that intensity using a grey colorscale. Light grey represents areas of low peptide numbers while black represents the intensity having the highest number of peptides. The diagonal line is equivalence line. Selectivity vs NISC was not dependent on cyclization as diaphorase also bound the linear forms for some peptides (Table 4). Three peptides having the highest degree of cyclization in the quality control assay were identified and binding intensities compared to other library peptides having one or two amino acid substitutions (FIG. 30) Each CLUSTAL alignment contains the library peptides having a maximum of two substitutions to the parent peptide. Dark grey highlights indicate a residue conserved in more than 60% of the peptides. Light grey highlights indicate chemically similar amino acids to the conserved residue. The amino acid usage is indicated in the sequence logo above the alignment. Substitutional analysis provides confidence in the array data by indicating which residues are important for binding.
# Sequence of Streptavidin (P22629 25-183, species assumed): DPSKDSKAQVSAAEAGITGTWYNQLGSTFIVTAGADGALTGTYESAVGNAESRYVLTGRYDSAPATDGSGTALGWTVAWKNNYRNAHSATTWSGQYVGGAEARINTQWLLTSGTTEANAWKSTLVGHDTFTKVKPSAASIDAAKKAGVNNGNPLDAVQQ
# T1 sequence (P15559 whole entry): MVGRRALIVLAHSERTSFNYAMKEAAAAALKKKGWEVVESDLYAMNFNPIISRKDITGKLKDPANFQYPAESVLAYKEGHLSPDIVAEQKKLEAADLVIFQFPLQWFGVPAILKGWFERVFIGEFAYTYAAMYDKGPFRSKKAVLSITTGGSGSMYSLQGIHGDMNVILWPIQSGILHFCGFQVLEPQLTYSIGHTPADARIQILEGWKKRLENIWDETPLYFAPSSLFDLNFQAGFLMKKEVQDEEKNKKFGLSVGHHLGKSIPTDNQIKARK
Compound,"ring closure, fraction oxidized by MALDI [1]","Diaphorase Lactam, log 10 transformed median intensity (human diaphorase (NQO1))","Diaphorase Linear, log 10 transformed median intensity (human diaphorase (NQO1))","FNR Lactam, log 10 transformed median intensity [2]","FNR Linear, log 10 transformed median intensity [2]","Streptavidin Lactam, log 10 transformed median intensity (Streptavidin)","Streptavidin Linear, log 10 transformed median intensity (Streptavidin)","Ferredoxin Lactam, log 10 transformed median intensity (Ferredoxin)","Ferredoxin Linear, log 10 transformed median intensity (Ferredoxin)","NISC Lactam, log 10 transformed median intensity [3]","NISC Linear, log 10 transformed median intensity [3]"
COc1cc(OC)c([P+](CC(=O)N[C@@H](Cc2ccc(O)cc2)C(=O)N[C@@H](CS)C(=O)N[C@@H](CS)C(=O)N[C@@H](CO)C(=O)NCCCC[C@@H]2NC(=O)[C@@H]3CCCN3C2=O)(c2c(OC)cc(OC)cc2OC)c2c(OC)cc(OC)cc2OC)c(OC)c1,0.7,–,–,–,–,–,–,–,–,–,–
"TFSSFAPV [library array peptide, tested lactam constrained and linear]",–,4.52,2.86,2.56,2.55,2.53,2.53,2.70,2.55,3.36,2.65
"TISYPLTP [library array peptide, tested lactam constrained and linear]",–,4.55,2.86,2.56,2.53,2.54,2.53,2.84,2.55,3.49,2.59
"TSFFPGYN [library array peptide, tested lactam constrained and linear]",–,4.51,2.86,2.62,2.54,2.52,2.53,2.71,2.54,3.47,2.60
"TTFFQPSY [library array peptide, tested lactam constrained and linear]",–,4.46,2.77,2.55,2.54,2.52,2.54,2.78,2.54,3.35,2.59
"TTFSFSTP [library array peptide, tested lactam constrained and linear]",–,4.47,2.78,2.62,2.57,2.55,2.54,2.69,2.58,3.33,2.62
"TTLFQTPY [library array peptide, tested lactam constrained and linear]",–,4.45,2.80,2.63,2.54,2.53,2.52,2.66,2.54,3.28,2.69
"TYPGVYPS [library array peptide, tested lactam constrained and linear]",–,4.40,2.75,2.59,2.54,2.53,2.51,2.69,2.54,3.16,2.58
"TYPIYGPA [library array peptide, tested lactam constrained and linear]",–,4.46,2.77,2.59,2.53,2.54,2.52,2.80,2.55,3.43,2.59
"VPSSYNLN [library array peptide, tested lactam constrained and linear]",–,4.38,3.82,2.58,2.57,2.57,2.57,2.6,2.58,2.68,2.65

# From patent publication US20200407712A1, “ARRAY-BASED CYCLIC PEPTIDE LIBRARIES” (HealthTell Inc., priority 2018, published 2020)
